Where two headings read alike, the source gives them in different places.
Key:
CD4+ T-cells = experiment: Immunostimulation assay with anti-CD3/28 stimulated T-cells, CD69 expression by flow cytometry; type: cell-based, human
Description: (§1) Selection of potent compounds based on structure activity relation (SAR) using human, anti-CD3/28 stimulated T-cells. Enhanced activation of stimulated T-cells is measured by CD69 expression by flowcytometry.
(§2) White blood cell enriched buffy coats were ordered from the Austrian red cross, diluted with PBS to a total volume of 480 ml, 30 ml transferred to 50ml falcons and 11 ml lymphoprep added. Cell suspensions were centrifuged for 20 min at 2200 rpm and the PBMC containing layer transferred, three times washed with PBS and counted.
(§3) 10^7 PBMCs were magnetically labeled with CD4 and CD8 microbeads according to manufacturer's instructions and separated using autoMACS device. For dose response experiments with purified CD4+CD8+ T-cells 80000 cells were seeded per 96-well flat bottom cell culture dish.
(§4) 10 mM compounds of the invention stocks were further diluted using DMSO and equal amounts transferred to T-cell containing 96-wells. Final concentrations tested were: 30 µM, 10 µM, 3 µM, 1 µM, 0.3 µM, 0.1 µM, 0.03 µM, 0.01 µM, 0.003 µM and 0.001 µM.
(§5) For the stimulation assays 80.000 purified CD4+ and CD8+ T-cells were seeded per 96-well and incubated with 1 µg/ml anti-CD3, 1 µg/ml anti-CD28 and compounds of the invention ranging from 0.001 µM to 30 µM. DMSO only wells served as control to determine minimal T-cell activation upon stimulation and CD3/28 coupled Dynabeads were used to determine the maximal activation of T-cells. Cells were cultured for 16 hours in a humidified incubator at 37 °C and 5 % CO2.
(§6) T-cells were stained for surface antigens (anti-CD4 and anti-CD8) and cell activation markers (anti-CD25 and anti-CD69). Additionally, a fixable viability dye was used to stain viable cells. Staining was performed for 15 minutes and cells analyzed using a Fortessa flow cytometer and FlowJo Software. EC50s were calculated using GraphPad Prism® and a variable slope model (agonist vs. response - variable slope).

CD8+ T-cells = experiment: as above; type: cell-based, human
Description: as §1, §2, §3, §4, §5, §6

[1] = T-cell, purified human CD4+ and CD8+ T-cells, 1 µg/ml anti-CD3, 1 µg/ml anti-CD28, 16 hours, surface FACS, read-out: EC50 CD4+
[2] = T-cell, purified human CD4+ and CD8+ T-cells, 1 µg/ml anti-CD3, 1 µg/ml anti-CD28, 16 hours, surface FACS, read-out: EC50 CD8+

Compound	EC50 (CD4+ T-cells; [1])	EC50 (CD8+ T-cells; [2])	EC50 (CD4+ T-cells; 16 h)	EC50 (CD8+ T-cells; 16 h)
Cn1c(-c2ccc(OCc3ccc(C(F)F)cc3)c(F)c2)nc2c1c(=O)[nH]c(=O)n2CC(O)C(F)(F)F (centres unmarked) [Compound 18]	–	–	> 5000 nM	1000 to 5000 nM
COc1cc(-c2nc3c(c(=O)[nH]c(=O)n3CC(C)(C)O)n2C)ccc1OCc1ccccc1 [Compound 52, 8-(4-(benzyloxy)-3-methoxyphenyl)-3-(2-hydroxy-2-methylpropyl)-7-methyl-3,7-dihydro-1H-purine-2,6-dione]	1000 to 5000 nM	> 5000 nM	–	–
COCC(O)Cn1c(=O)[nH]c(=O)c2c1nc(-c1ccc(OCc3ccccc3)c(OC)c1)n2C (centres unmarked) [Compound 54, 8-(4-(benzyloxy)-3-methoxyphenyl)-3-(2-hydroxy-3-methoxypropyl)-7-methyl-3,7-dihydro-1H-purine-2,6-dione]	1000 to 5000 nM	1000 to 5000 nM	–	–
COc1cc(-c2nc3c(c(=O)[nH]c(=O)n3CC(O)CO)n2C)ccc1OCc1ccccc1 (centres unmarked) [Compound 55, 8-(4-(benzyloxy)-3-methoxyphenyl)-3-(2,3-dihydroxypropyl)-7-methyl-3,7-dihydro-1H-purine-2,6-dione]	1000 to 5000 nM	1000 to 5000 nM	–	–
CCC(O)Cn1c(=O)[nH]c(=O)c2c1nc(-c1ccc(OCc3ccccc3)c(OC)c1)n2C (centres unmarked) [Compound 59, 8-(4-(benzyloxy)-3-methoxyphenyl)-3-(2-hydroxybutyl)-7-methyl-3,7-dihydro-1H-purine-2,6-dione]	1000 to 5000 nM	1000 to 5000 nM	–	–
COc1cc(-c2nc3c(c(=O)[nH]c(=O)n3C[C@@H](C)O)n2C)ccc1OCc1ccccc1 [Compound 60, (R)-8-(4-(benzyloxy)-3-methoxyphenyl)-3-(2-hydroxypropyl)-7-methyl-3,7-dihydro-1H-purine-2,6-dione]	1000 to 5000 nM	1000 to 5000 nM	–	–
Cn1c(-c2ccc(OCc3ccc(C(F)F)cc3)c(F)c2)nc2c1c(=O)[nH]c(=O)n2CC(O)C(F)F (centres unmarked) [Compound 62, 3-(3,3-difluoro-2-hydroxypropyl)-8-(4-((4-(difluoromethyl)benzyl)oxy)-3-fluorophenyl)-7-methyl-3,7-dihydro-1H-purine-2,6-dione]	500 to 1000 nM	100 to 500 nM	–	–
Cn1c(-c2ccc(OCc3ccc(C(F)F)cc3)c(F)c2)nc2c1c(=O)[nH]c(=O)n2CC(O)C(F)(F)F (centres unmarked) [Compound 64, 8-(4-((4-(difluoromethyl)benzyl)oxy)-3-fluorophenyl)-7-methyl-3-(3,3,3-trifluoro-2-hydroxypropyl)-3,7-dihydro-1H-purine-2,6-dione]	> 5000 nM	1000 to 5000 nM	–	–
CC(O)Cn1c(=O)[nH]c(=O)c2c1nc(-c1ccc(OCc3ccc(C(F)F)cc3)c(F)c1)n2C (centres unmarked) [Compound 65, 8-(4-((4-(difluoromethyl)benzyl)oxy)-3-fluorophenyl)-3-(2-hydroxypropyl)-7-methyl-3,7-dihydro-1H-purine-2,6-dione]	500 to 1000 nM	100 to 500 nM	–	–
COc1cc(-c2nc3c(c(=O)[nH]c(=O)n3CC(O)CO)n2C)ccc1OCc1ccc(C(F)F)cc1 (centres unmarked) [Compound 72, 8-(4-((4-(difluoromethyl)benzyl)oxy)-3-methoxyphenyl)-3-(2,3-dihydroxypropyl)-7-methyl-3,7-dihydro-1H-purine-2,6-dione]	1000 to 5000 nM	1000 to 5000 nM	–	–
COc1cc(-c2nc3c(c(=O)[nH]c(=O)n3CC(O)CF)n2C)ccc1OCc1ccc(C(F)F)cc1 (centres unmarked) [Compound 73, 8-(4-((4-(difluoromethyl)benzyl)oxy)-3-methoxyphenyl)-3-(3-fluoro-2-hydroxypropyl)-7-methyl-3,7-dihydro-1H-purine-2,6-dione]	500 to 1000 nM	500 to 1000 nM	–	–

Second part, the compound after the results:

EC50 (CD4+ T-cells; [1])	EC50 (CD8+ T-cells; [2])	EC50 (CD4+ T-cells; 16 h)	EC50 (CD8+ T-cells; 16 h)	Compound
500 to 1000 nM	1000 to 5000 nM	–	–	COc1cc(-c2nc3c(c(=O)[nH]c(=O)n3CC(C)O)n2C)ccc1OCc1ccccc1 (centres unmarked) [Compound 16, 8-(4-(benzyloxy)-3-methoxyphenyl)-3-(2-hydroxypropyl)-7-methyl-3,7-dihydro-1H-purine-2,6-dione]
500 to 1000 nM	< 100 nM	–	–	COc1cc(-c2nc3c(c(=O)[nH]c(=O)n3CC(O)C(F)F)n2C)ccc1OCc1ccc(C)cc1 (centres unmarked) [Compound 19, 3-(3,3-difluoro-2-hydroxypropyl)-8-(3-methoxy-4-((4-methylbenzyl)oxy)phenyl)-7-methyl-3,7-dihydro-1H-purine-2,6-dione]
< 100 nM	< 100 nM	–	–	COc1cc(-c2nc3c(c(=O)[nH]c(=O)n3C[C@H](O)C(F)F)n2C)ccc1OCc1ccccc1 [Compound 53, (S)-8-(4-(benzyloxy)-3-methoxyphenyl)-3-(3,3-difluoro-2-hydroxypropyl)-7-methyl-3,7-dihydro-1H-purine-2,6-dione]
100 to 500 nM	100 to 500 nM	–	–	COc1cc(-c2nc3c(c(=O)[nH]c(=O)n3CC(C)CO)n2C)ccc1OCc1ccccc1 (centres unmarked) [Compound 56, 8-(4-(benzyloxy)-3-methoxyphenyl)-3-(3-hydroxy-2-methylpropyl)-7-methyl-3,7-dihydro-1H-purine-2,6-dione]
500 to 1000 nM	1000 to 5000 nM	–	–	COc1cc(-c2nc3c(c(=O)[nH]c(=O)n3CC(O)C(F)(F)F)n2C)ccc1OCc1ccccc1 (centres unmarked) [Compound 57, 8-(4-(benzyloxy)-3-methoxyphenyl)-7-methyl-3-(3,3,3-trifluoro-2-hydroxypropyl)-3,7-dihydro-1H-purine-2,6-dione]
500 to 1000 nM	100 to 500 nM	–	–	COc1cc(-c2nc3c(c(=O)[nH]c(=O)n3CC(O)CF)n2C)ccc1OCc1ccccc1 (centres unmarked) [Compound 58, 8-(4-(benzyloxy)-3-methoxyphenyl)-3-(3-fluoro-2-hydroxypropyl)-7-methyl-3,7-dihydro-1H-purine-2,6-dione]
500 to 1000 nM	500 to 1000 nM	–	–	COc1cc(-c2nc3c(c(=O)[nH]c(=O)n3C[C@H](C)O)n2C)ccc1OCc1ccccc1 [Compound 61, (S)-8-(4-(benzyloxy)-3-methoxyphenyl)-3-(2-hydroxypropyl)-7-methyl-3,7-dihydro-1H-purine-2,6-dione]
100 to 500 nM	100 to 500 nM	–	–	Cn1c(-c2ccc(OCc3ccc(C(F)F)cc3)c(F)c2)nc2c1c(=O)[nH]c(=O)n2CC(O)CF (centres unmarked) [Compound 63, 8-(4-((4-(difluoromethyl)benzyl)oxy)-3-fluorophenyl)-3-(3-fluoro-2-hydroxypropyl)-7-methyl-3,7-dihydro-1H-purine-2,6-dione]
< 100 nM	< 100 nM	–	–	COc1cc(-c2nc3c(c(=O)[nH]c(=O)n3CC(CO)C(F)F)n2C)ccc1OCc1ccc(C(F)F)cc1 (centres unmarked) [Compound 66, 3-(3,3-difluoro-2-(hydroxymethyl)propyl)-8-(4-((4-(difluoromethyl)benzyl)oxy)-3-methoxyphenyl)-7-methyl-3,7-dihydro-1H-purine-2,6-dione]
< 100 nM	100 to 500 nM	–	–	Cc1ccc(COc2ccc(-c3nc4c(c(=O)[nH]c(=O)n4CC(CO)C(F)F)n3C)cc2F)cc1 (centres unmarked) [Compound 67, 3-(3,3-difluoro-2-(hydroxymethyl)propyl)-8-(3-fluoro-4-((4-methylbenzyl)oxy)phenyl)-7-methyl-3,7-dihydro-1H-purine-2,6-dione]
100 to 500 nM	100 to 500 nM	–	–	COc1cc(-c2nc3c(c(=O)[nH]c(=O)n3CC(O)C(F)F)n2C)ccc1OCc1ccccc1 (centres unmarked) [Compound 68, 8-(4-(benzyloxy)-3-methoxyphenyl)-3-(3,3-difluoro-2-hydroxypropyl)-7-methyl-3,7-dihydro-1H-purine-2,6-dione]
